Laboratory results reported in patent publication US9539237B2, “Compositions and methods for drug-sensitization or inhibition of a cancer cell” (The Texas A&M University System, priority 2012, dated 2017).

Columns and labels:
ABCB1 pumps = ABCB1 pumps (Homo sapiens, UniProt P08183); settings: NCI/ADR-RES and G3 cells
CRL2631 cells = test: Collagen invasion 3D assay, CRL2631 cells; format: cell-based, human; settings: 10 uM Rifabutin in collagen matrix, 24 hours
Experimental: The effects of rifabutin on cell invasion was assessed in a collagen invasion 3D assay. Increased interest in the use of 3D culture systems has been motivated by accumulating evidence that 3D models better reflect the microenvironment of tumors and metastases and more accurately predict therapeutic response in vivo compared with conventional 2D assays. A collagen invasion 3D assay allows the rapid and quantitative assessment of invasiveness and a means to screen for drugs which alter the invasive phenotype of tumor cells.
The CHOP-resistant G3 cell line is much more invasive in a collage invasion 3D assay than its CHOP-sensitive parent cell line (CRL2631). Collagen matrices (1 mg/ml) were prepared as previously described in Su. S. C., et al., Molecular profile of endothelial invasion of three-dimensional collagen matrices: insights into angiogenic sprout induction in wound healing. Am. J. Physiol. […] Cell invasion density was quantified by counting fixed cultures under transmitted light using an Olympus CK2 inverted microscope equipped with eyepieces displaying a 10×10 ocular grid. For each condition, four random fields were selected and the number of invading cells per high power field (HPF) was counted manually at 10× magnification, corresponding to 1 mm^2 area. […]

[1] = test system: CHOP-sensitive CRL2631 cells; test: Prevention of the emergence of CHOP resistance in CRL2631 cells; format: cell-based, human; settings: half (0.5×) and full (1×) doses of CHOP, one week treatment
Experimental: The ability of rifabutin to prevent the emergence of CHOP-resistance was determined by treating CHOP-sensitive CRL2631 cells with either CHOP alone or CHOP+rifabutin for one week. Following treatment, the cells were grown in the absence of CHOP, then their sensitivity to CHOP was assayed by retreatment with CHOP, followed by counting of viable cells. […] A 1× CHOP dose in this experiment corresponds to final concentrations of the following components: 0.83 μM 4-hydroxycyclophosphamide [4HC, a pre-activated form of cyclophosphamide], 0.057 μM doxorubicin, 0.01 μM vincristine, and 0.186 μM prednisone.

ABCB1 pumps, sequence (P08183 whole entry): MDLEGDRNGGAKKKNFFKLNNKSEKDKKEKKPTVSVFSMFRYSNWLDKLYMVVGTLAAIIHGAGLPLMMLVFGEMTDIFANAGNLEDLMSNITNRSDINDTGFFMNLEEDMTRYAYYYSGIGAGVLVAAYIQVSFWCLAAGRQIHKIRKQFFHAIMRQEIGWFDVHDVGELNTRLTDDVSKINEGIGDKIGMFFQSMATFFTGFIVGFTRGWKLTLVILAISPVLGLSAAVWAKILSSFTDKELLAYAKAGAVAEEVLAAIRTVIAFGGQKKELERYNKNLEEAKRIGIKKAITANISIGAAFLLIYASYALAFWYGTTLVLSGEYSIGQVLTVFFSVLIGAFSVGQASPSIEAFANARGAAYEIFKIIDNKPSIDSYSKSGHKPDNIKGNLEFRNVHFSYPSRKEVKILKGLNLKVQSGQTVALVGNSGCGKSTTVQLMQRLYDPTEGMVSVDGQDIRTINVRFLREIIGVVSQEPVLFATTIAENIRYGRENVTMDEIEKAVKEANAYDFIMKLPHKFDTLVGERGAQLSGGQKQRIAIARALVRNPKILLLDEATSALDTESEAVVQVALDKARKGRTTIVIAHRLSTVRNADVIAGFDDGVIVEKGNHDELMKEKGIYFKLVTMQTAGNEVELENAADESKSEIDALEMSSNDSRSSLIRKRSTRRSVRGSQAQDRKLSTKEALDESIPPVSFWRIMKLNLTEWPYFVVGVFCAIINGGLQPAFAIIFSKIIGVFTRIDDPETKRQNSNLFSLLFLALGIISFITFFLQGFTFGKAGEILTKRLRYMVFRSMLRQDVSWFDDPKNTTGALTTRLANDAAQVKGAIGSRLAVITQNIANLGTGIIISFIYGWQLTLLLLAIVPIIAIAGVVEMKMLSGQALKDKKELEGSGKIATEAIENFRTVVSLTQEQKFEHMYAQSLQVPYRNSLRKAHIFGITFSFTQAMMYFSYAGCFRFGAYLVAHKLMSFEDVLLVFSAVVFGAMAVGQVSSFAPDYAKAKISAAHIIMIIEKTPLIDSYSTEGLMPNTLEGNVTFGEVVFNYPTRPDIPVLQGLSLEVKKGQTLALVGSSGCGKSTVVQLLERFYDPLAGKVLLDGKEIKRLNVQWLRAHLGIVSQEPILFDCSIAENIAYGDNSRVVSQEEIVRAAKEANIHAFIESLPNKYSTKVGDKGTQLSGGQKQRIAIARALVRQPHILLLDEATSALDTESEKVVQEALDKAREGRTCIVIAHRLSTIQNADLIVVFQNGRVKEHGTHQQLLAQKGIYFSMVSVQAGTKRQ

CO[C@H]1/C=C/O[C@@]2(C)Oc3c(C)c(O)c4c(c3C2=O)C2=NC3(CCN(CC(C)C)CC3)NC2=C(NC(=O)/C(C)=C\C=C\[C@H](C)[C@H](O)[C@@H](C)[C@@H](O)[C@@H](C)[C@H](OC(C)=O)[C@@H]1C)C4=O [Rifabutin, rifabutin]
Inhibition of efflux pumps (ABCB1 pumps): clear inhibition
Reduction of the amount of invasion (CRL2631 cells): Less of this effect
Emergence of CHOP-resistant cells [1]: significantly repress
